# What was measured:
# [1] = tested on: rats with streptozotocin-induced diabetes mellitus; assay: Fasting blood plasma glucose level in rats with streptozotocin-induced diabetes mellitus; type: in vivo, Wistar rats; settings: STZ rats
# Protocol: In the study, 150 male Wistar were used (weight at beginning of study 250-300 g, age 3.5-4 months). 10 rats were intact. The rest were intravenously injected with streptozotocin at the dose of 50 mg/kg (experimental model of diabetes mellitus). […] Intact rats received distilled water in the same volume. On days 7, 14 and 21 of injection of preparations in rats, fasting blood plasma glucose level measured with enzymatic method (glucose oxidase method) with utilization of “glucose FKD” kits (Russia).
# [2] = tested on: rats with streptozotocin-induced diabetes mellitus; assay: Oral glucose tolerance test (OGTT) on day 14 in rats with streptozotocin-induced diabetes mellitus; type: in vivo, Wistar rats; settings: STZ rats; day 14 of injection; glucose 1 g/kg per os; administered alone
# Protocol: The rats were starving at water for 18 hours. 60 min before the test they were last given test substances. Intact rats received distilled water in the same volume. Glucose was administered per os 50% w/w water glucose solution (1 g/kg of rat weight). Serum glucose of blood sample from tail vein was measured by using “Glucose FKD” kit (OOO “Pharamaceutical and clinical diagnostics, Russia) at 0, 30, 60, 90, 120 min. Mean area under the curve (AUC) concentration of blood glucose over time was calculated.
Compound,"decrease in glucose level versus control ([1]; day 14 of the experiment, p<0.05 versus control) [%]","effect on blood plasma glucose level (in words) ([1]; all observation periods, 1/2 of the effective dose, glucose measured 1 hour after injection)","glucose tolerance, area under concentration-time curve (AUC) in OGTT (in words) [2]"
CN(CCOc1ccc(CC2SC(=O)NC2=O)cc1)c1ccccn1 (stereo not drawn) [Rosiglitazone],36,,
"insulin: short-acting insulin, 8 units/kg/day subcutaneously, 1/2 of the effective dose",,down to the level of the intact control,most effectively increased glucose tolerance
